Source: patent US12319684B2 (Sanford Burnham Prebys Medical Discovery Institute, priority 2014, dated 2025)
Where two headings read alike, the source gives them in different places.

Biological target: T1, human apelin receptor (APJ, AGTRL-1, APLNR) (Homo sapiens, UniProt P35414)
T1 construct: host or cells: Chinese hamster ovary cells
T1 sequence (P35414 1-380): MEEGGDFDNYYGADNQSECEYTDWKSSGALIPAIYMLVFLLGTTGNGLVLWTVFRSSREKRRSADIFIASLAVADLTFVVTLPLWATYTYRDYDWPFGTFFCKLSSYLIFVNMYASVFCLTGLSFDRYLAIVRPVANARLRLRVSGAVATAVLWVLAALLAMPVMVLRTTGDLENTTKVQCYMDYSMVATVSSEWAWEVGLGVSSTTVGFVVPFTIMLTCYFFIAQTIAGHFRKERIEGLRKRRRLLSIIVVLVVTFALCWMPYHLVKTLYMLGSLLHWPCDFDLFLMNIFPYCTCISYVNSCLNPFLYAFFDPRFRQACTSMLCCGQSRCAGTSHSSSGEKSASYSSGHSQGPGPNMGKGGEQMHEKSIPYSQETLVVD
Experiment: APJ cAMP cell-based assay (forskolin-stimulated CHO cells, enzyme fragment complementation)
Details: for EC50: CHO cells expressing human APJ, forskolin-stimulated, 0.5 h incubation, 50% of control (apelin-13, 1 nM) response, read-out: APJ cAMP EC50; for Emax: CHO, 0.5 h, read-out: APJ cAMP % resp (efficacy)
Method: The assays disclosed herein were performed using cell lines from DiscoveRx, Inc.
Biological activity was determined in a cell-based assay. This assay detects activation of the receptor by reporting on intracellular cyclic adenosine monophosphate (cAMP) level. Chinese hamster ovary cells engineered to express a stably integrated human apelin receptor (APJ, AGTRL-1, APLNR), were plated into the wells of a microtiter plate. Cells were stimulated with forskolin to increase intracellular cAMP. Immediately following, compounds were added at a range of final concentrations 0.0-100 μM, in DMSO (not to exceed a final DMSO concentration of >1% v/v), and allowed to incubate with the cells for 0.5 h. At the end of the incubation, cells were lysed to stop APJ signaling, and cAMP was quantified using a commercially available assay kit that applies enzyme fragment complementation technology and bioluminescence, in a competitive ELISA format.
Compound efficacy (% resp) is reported as a percentage of the maximal apelin-13 response at 1 nM (control).

[1] = percentage of the maximal apelin-13 response at 1 nM (control)

| Compound | EC50 [nM] | Emax [1] [%] | Emax [%] |
| --- | --- | --- | --- |
| COc1ccccc1-n1c(SCc2cc(=O)n3cc(C)ccc3n2)nnc1-c1sccc1C [Example 12, 2-[4-(2-Methoxy-phenyl)-5-(3-methyl-thiophen-2-yl)-4H-[1,2,4]triazol-3-ylsulfanylmethyl]-7-methyl-pyrido[1,2-a]pyrimidin-4-one] | 1490 | 89 |  |
| COc1ccccc1-n1c(SCc2cc(=O)n3cc(C)ccc3n2)nnc1-c1nccs1 [Example 14, 2-[4-(2-Methoxy-phenyl)-5-thiazol-2-yl-4H-[1,2,4]triazol-3-ylsulfanylmethyl]-7-methyl-pyrido[1,2-a]pyrimidin-4-one] | 772 | 105 |  |
| COc1ccccc1-n1c(SCc2cc(=O)n3cc(C)ccc3n2)nnc1-c1nccn1C [Example 19, 2-[4-(2-Methoxy-phenyl)-5-(1-methyl-1H-imidazol-2-yl)-4H-[1,2,4]triazol-3-ylsulfanylmethyl]-7-methyl-pyrido[1,2-a]pyrimidin-4-one] | > 10000 | 57 |  |
| COc1ccc(-n2c(SCc3cc(=O)n4cc(C)ccc4n3)nnc2-c2cccs2)cc1 [Example 20, 2-[4-(4-Methoxy-phenyl)-5-thiophen-2-yl-4H-[1,2,4]triazol-3-ylsulfanylmethyl]-7-methyl-pyrido[1,2-a]pyrimidin-4-one] | 5000 |  | 10 |
| Cc1cccc(-n2c(SCc3cc(=O)n4cc(C)ccc4n3)nnc2-c2cccs2)c1 [Example 21, 7-Methyl-2-(5-thiophen-2-yl-4-m-tolyl-4H-[1,2,4]triazol-3-ylsulfanylmethyl)-pyrido[1,2-a]pyrimidin-4-one] | 2370 | 113 |  |
| COc1cccc(-n2c(SCc3cc(=O)n4cc(C)ccc4n3)nnc2-c2cccs2)c1 [Example 22, 2-[4-(3-Methoxy-phenyl)-5-thiophen-2-yl-4H-[1,2,4]triazol-3-ylsulfanylmethyl]-7-methyl-pyrido[1,2-a]pyrimidin-4-one] | 1240 | 134 |  |
| Cc1ccc2nc(CSc3nnc(-c4cccs4)n3-c3ccccc3C)cc(=O)n2c1 [Example 23, 7-Methyl-2-(5-thiophen-2-yl-4-o-tolyl-4H-[1,2,4]triazol-3-ylsulfanylmethyl)-pyrido[1,2-a]pyrimidin-4-one] | 179 | 109 |  |
| Cc1ccc2nc(CSc3nnc(-c4cccs4)n3-c3ccccc3F)cc(=O)n2c1 [Example 24, 2-[4-(2-Fluoro-phenyl)-5-thiophen-2-yl-4H-[1,2,4]triazol-3-ylsulfanylmethyl]-7-methyl-pyrido[1,2-a]pyrimidin-4-one] | > 10000 |  |  |
| Cc1ccc2nc(CSc3nnc(-c4cccs4)n3-c3ccc(OC(F)(F)F)cc3)cc(=O)n2c1 [Example 25, 7-Methyl-2-[5-thiophen-2-yl-4-(4-trifluoromethoxy-phenyl)-4H-[1,2,4]triazol-3-ylsulfanylmethyl]-pyrido[1,2-a]pyrimidin-4-one] | > 10000 | 52 |  |
| Cc1ccc2nc(CSc3nnc(-c4cccs4)n3-c3ccc(Cl)cc3)cc(=O)n2c1 [Example 26, 2-[4-(4-Chloro-phenyl)-5-thiophen-2-yl-4H-[1,2,4]triazol-3-ylsulfanylmethyl]-7-methyl-pyrido[1,2-a]pyrimidin-4-one] | > 10000 | 86 |  |
| Cc1ccc2nc(CSc3nnc(-c4cccs4)n3-c3ccccc3OC(F)(F)F)cc(=O)n2c1 [Example 27, 7-Methyl-2-[5-thiophen-2-yl-4-(2-trifluoromethoxy-phenyl)-4H-[1,2,4]triazol-3-ylsulfanylmethyl]-pyrido[1,2-a]pyrimidin-4-one] | 17.4 | 82 |  |

Second part, led by results:

| EC50 [nM] | Emax [1] [%] | Compound | Emax [%] |
| --- | --- | --- | --- |
| 310 | 154 | COc1ccccc1-n1c(SCc2cc(=O)n3cc(C)ccc3n2)nnc1-c1ccco1 [Example 2, 2-[5-Furan-2-yl-4-(2-methoxy-phenyl)-4H-[1,2,4]triazol-3-ylsulfanylmethyl]-7-methyl-pyrido[1,2-a]pyrimidin-4-one] |  |
| 6160 | 136 | COc1ccccc1-n1c(SCc2cc(=O)n3cc(C)ccc3n2)nnc1-c1ccccc1 [Example 3, 2-[4-(2-Methoxy-phenyl)-5-phenyl-4H-[1,2,4]triazol-3-ylsulfanylmethyl]-7-methyl-pyrido[1,2-a]pyrimidin-4-one] |  |
| 3090 | 80 | COc1ccccc1-n1c(SCc2cc(=O)n3cc(C)ccc3n2)nnc1-c1ccncc1 [Example 4, 2-[4-(2-Methoxy-phenyl)-5-pyridin-4-yl-4H-[1,2,4]triazol-3-ylsulfanylmethyl]-7-methyl-pyrido[1,2-a]pyrimidin-4-one] |  |
| 1510 | 126 | COc1ccccc1-n1c(SCc2cc(=O)n3cc(C)ccc3n2)nnc1-c1ccc(C)cc1 [Example 5, 2-[4-(2-Methoxy-phenyl)-5-p-tolyl-4H-[1,2,4]triazol-3-ylsulfanylmethyl]-7-methyl-pyrido[1,2-a]pyrimidin-4-one] |  |
| 13600 | 176 | COc1ccccc1-n1c(SCc2cc(=O)n3cc(C)ccc3n2)nnc1-c1ccc(N(C)C)cc1 [Example 6, 2-[5-(4-Dimethylamino-phenyl)-4-(2-methoxy-phenyl)-4H-[1,2,4]triazol-3-ylsulfanylmethyl]-7-methyl-pyrido[1,2-a]pyrimidin-4-one] |  |
| 6630 | 51 | COc1ccccc1-n1c(SCc2cc(=O)n3cc(C)ccc3n2)nnc1-c1ccc([N+](=O)[O-])cc1 [Example 7, 2-[4-(2-Methoxy-phenyl)-5-(4-nitro-phenyl)-4H-[1,2,4]triazol-3-ylsulfanylmethyl]-7-methyl-pyrido[1,2-a]pyrimidin-4-one] |  |
| 551 | 137 | COc1ccccc1-n1c(SCc2cc(=O)n3cc(C)ccc3n2)nnc1-c1ccc(Br)s1 [Example 8, 2-[5-(5-Bromo-thiophen-2-yl)-4-(2-methoxy-phenyl)-4H-[1,2,4]triazol-3-ylsulfanylmethyl]-7-methyl-pyrido[1,2-a]pyrimidin-4-one] |  |
| 455 | 136 | COc1ccccc1-n1c(SCc2cc(=O)n3cc(C)ccc3n2)nnc1-c1ccc(Cl)s1 [Example 9, 2-[5-(5-Chloro-thiophen-2-yl)-4-(2-methoxy-phenyl)-4H-[1,2,4]triazol-3-ylsulfanylmethyl]-7-methyl-pyrido[1,2-a]pyrimidin-4-one] |  |
| 18.2 | 150 | COc1ccccc1-n1c(SCc2cc(=O)n3cc(C)ccc3n2)nnc1-c1ccc(Br)o1 [Example 10, 2-[5-(5-Bromo-furan-2-yl)-4-(2-methoxy-phenyl)-4H-[1,2,4]triazol-3-ylsulfanylmethyl]-7-methyl-pyrido[1,2-a]pyrimidin-4-one] |  |
| 70.4 | 118 | COc1ccccc1-n1c(SCc2cc(=O)n3cc(C)ccc3n2)nnc1-c1ccc(C)s1 [Example 11, 2-[4-(2-Methoxy-phenyl)-5-(5-methyl-thiophen-2-yl)-4H-[1,2,4]triazol-3-ylsulfanylmethyl]-7-methyl-pyrido[1,2-a]pyrimidin-4-one] |  |
| 1420 | 94 | COc1ccccc1-n1c(SCc2cc(=O)n3cc(C)ccc3n2)nnc1-c1ccc(C#N)cc1 [Example 13, 4-[4-(2-Methoxy-phenyl)-5-(7-methyl-4-oxo-4H-pyrido[1,2-a]pyrimidin-2-ylmethylsulfanyl)-4H-[1,2,4]triazol-3-yl]-benzonitrile] |  |
| 4.44 | 52 | COc1ccccc1-n1c(SCc2cc(=O)n3cc(C)ccc3n2)nnc1-c1ccc(C)o1 [Example 15, 2-[4-(2-Methoxy-phenyl)-5-(5-methyl-furan-2-yl)-4H-[1,2,4]triazol-3-ylsulfanylmethyl]-7-methyl-pyrido[1,2-a]pyrimidin-4-one] |  |
| 96.8 | 84 | COc1ccccc1-n1c(SCc2cc(=O)n3cc(C)ccc3n2)nnc1-c1ccoc1 [Example 16, 2-[5-Furan-3-yl-4-(2-methoxy-phenyl)-4H-[1,2,4]triazol-3-ylsulfanylmethyl]-7-methyl-pyrido[1,2-a]pyrimidin-4-one] |  |
| 90 | 109 | COc1ccccc1-n1c(SCc2cc(=O)n3cc(C)ccc3n2)nnc1-c1ccsc1 [Example 17, 2-[4-(2-Methoxy-phenyl)-5-thiophen-3-yl-4H-[1,2,4]triazol-3-ylsulfanylmethyl]-7-methyl-pyrido[1,2-a]pyrimidin-4-one] |  |
| 1700 | 58 | COc1ccccc1-n1c(SCc2cc(=O)n3cc(C)ccc3n2)nnc1-c1cccn1C [Example 18, 2-[4-(2-Methoxy-phenyl)-5-(1-methyl-1H-pyrrol-2-yl)-4H-[1,2,4]triazol-3-ylsulfanylmethyl]-7-methyl-pyrido[1,2-a]pyrimidin-4-one] |  |
